Consider two molecules from article PMC9597002, “The Combination of Individual Herb of Mi-Jian-Chang-Pu Formula Exerts a Synergistic Effect in the Treatment of Ischemic Stroke in Rats” (Oxidative Medicine and Cellular Longevity, 2022).

The test system of test [1] is MCAO rats. The experiment in a line: Neurological deficit score (Longa's five-point scale) 24 h after reperfusion. Particulars: oral once daily 14 days, compared with model group.
Experimental: (§1) 0.5% CMC-Na was used as vehicle with an equal volume (100 g/ml body-weight) for each rat. Treatments were administered once daily by oral gavage for 14 consecutive days. After the last administration, rats were fasted for 12 h, MCAO surgery was performed according to the reference by H Nagasawa and K Kogure. […] After 2 h of sustained MCAO, reperfusion was conducted, and the rats in sham operation group received the same surgical procedures except that the occluding monofilament was not inserted.
24 h after reperfusion, all rats were tested for sensorimotor ability according to the Longa's five-point scale (0, no neurologic deficit; 1, a slight forelimb flexion; 2 severe forelimb flexion and decreased resistance to lateral push; 3, spontaneous rotation or contralateral rotation to the affected side; 4, consciousness reduced and unable or difficult to move; 5, no response to stimulation).
Test [2] concerns MCAO rats. The experiment in a line: Infarct volume measurement by TTC staining. It counts as in vivo, Sprague-Dawley rats. Particulars: oral once daily 14 days, compared with model group.
The subject of test [3] is MCAO rats. The experiment in a line: Brain histopathology by HE staining. The settings on record: oral once daily 14 days.
Experimental: as §1
For brain histology, the tissue was fixed in 4% paraformaldehyde for 24 h, then the brain slices were rinsed, dehydrate, paraffin embedded, sectioned, and stained with hematoxylin-eosin (HE). The histopathological changes were observed under optical microscope.

As to `CC(/C=C/C=C(\C)C(=O)O[C@@H]1O[C@H](CO[C@@H]2O[C@H](CO)[C@@H](O)[C@H](O)[C@H]2O)[C@@H](O)[C@H](O)[C@H]1O)=C\C=C\C=C(C)\C=C\C=C(/C)C(=O)O[C@@H]1O[C@H](CO[C@@H]2O[C@H](CO)[C@@H](O)[C@H](O)[C@H]2O)[C@@H](O)[C@H](O)[C@H]1O` [A1, crocin I], the Neurological deficit score entry in test [1] is listed as “significant effects”. Also, the “Cerebral infarction volume ratio (TTC staining)” value in test [2] is “reduce the infarction volume significantly”. In addition, in test [3], the “Histopathological changes in brain tissue (HE staining)” value was “protective effect on brain injury”.
With `C/C=C\c1cc(OC)c(OC)cc1OC` [B1, β-asarone], in test [1], the Neurological deficit score entry is “significant effects”. In test [2], the “Cerebral infarction volume ratio (TTC staining)” value is “reduce the infarction volume significantly”. Also, in test [3], the “Histopathological changes in brain tissue (HE staining)” value is given as “protective effect on brain injury”.
